Values quoted from earlier work in patent US20060210650A1, “Supplemental dietary composition for promoting weight loss” (priority 2004, published 2006).

Conditions: 8-week study

Structure (SMILES): O=C(O)CC(O)(C(=O)O)C(O)C(=O)O (single isomer, unassigned; (-)) [HCA, (−) hydroxycitric acid]
- High-Density Lipoproteins and excretion of urinary fat metabolites: increased
- LDL-cholesterol, triglycerides and serum leptin levels: decrease
